Experiments:
[1] = target: T1, T. cruzi CYP51 (Trypanosoma cruzi, UniProt Q7Z1V1); experiment: CYP51 spectral ligand binding assay; details: for time course of the amplitude of the type 2 spectral response: T. cruzi CYP51 1.0 μM, 0.2 μM ligand (enzyme in excess)
[2] = tested on: Chagas disease; details: acute and chronic forms; cited from earlier work
[3] = target: T1, T. cruzi CYP51; experiment: CYP51 activity assay; assay type: biochemical; details: vs (R)-2; I/E=2, 1 h

T1 sequence (Q7Z1V1 whole entry): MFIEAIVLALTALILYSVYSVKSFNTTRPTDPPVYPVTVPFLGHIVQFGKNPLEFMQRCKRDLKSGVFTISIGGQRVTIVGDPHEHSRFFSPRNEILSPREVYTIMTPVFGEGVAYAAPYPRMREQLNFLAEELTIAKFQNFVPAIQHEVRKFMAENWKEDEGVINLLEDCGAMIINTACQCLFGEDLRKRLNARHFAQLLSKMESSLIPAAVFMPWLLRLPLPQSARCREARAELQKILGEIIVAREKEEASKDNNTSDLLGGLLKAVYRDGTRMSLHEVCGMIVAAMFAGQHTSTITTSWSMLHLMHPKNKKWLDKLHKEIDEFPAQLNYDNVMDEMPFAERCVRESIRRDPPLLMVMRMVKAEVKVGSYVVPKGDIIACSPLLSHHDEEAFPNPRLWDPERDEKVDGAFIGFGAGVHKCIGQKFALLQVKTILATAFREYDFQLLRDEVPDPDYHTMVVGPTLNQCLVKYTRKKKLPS

O=C(Nc1ccc(N2CCN(c3ccc(Cl)c(Cl)c3)CC2)cc1)OC(Cn1ccnc1)c1ccc(Cl)cc1Cl (centres unmarked) [Compound 6, 1-(2,4-dichlorophenyl)-2-(1H-imidazol-1-yl)ethyl 4-[4-(3,4-dichlorophenyl)piperazin-1-yl]phenylcarbamate]
time course of the amplitude of the type 2 spectral response [1]: very slow increase

O=C(N[C@@H](Cn1ccnc1)c1ccc(Cl)cc1Cl)c1ccc(-c2nnc(-c3ccccc3)o2)cc1 [VNI, (R)-N-(1-(2,4-dichlorophenyl)-2-(1H-imidazol-1-yl)ethyl)-4-(5-phenyl-1,3,4-oxadiazol-2-yl)benzamide]
cure of Chagas disease in mice [2]: cure both the acute and chronic forms

CC(C)c1ccc(NC(=O)O[C@H](Cn2ccnc2)c2ccc(Cl)cc2)cc1 [(S)-2, 1-(4-chlorophenyl)-2-(1H-imidazol-1-yl)ethyl-4-isopropylphenylcarbamate]
apparent binding efficiency, fold higher than (R)-2 ([1]; vs (R)-2): 2 fold
inhibitory effect on the substrate conversion, fold stronger than (R)-2 [3]: ~50 fold

CC(=O)N1CCN(c2ccc(OCC3COC(Cn4ccnc4)(c4ccc(Cl)cc4Cl)O3)cc2)CC1 (centres unmarked) [ketoconazole, reference compound]
time course of the amplitude of the type 2 spectral response [1]: somewhat similar pattern

From publication PMC4136671 (Journal of Medicinal Chemistry, 2014)
